Source: paper PMC3441706 (PLoS ONE, 2012)

Assays:
Type in all cases: cell-based, human
[1] = test system: HCT116 p53+/+ or p53−/− cells; assay: Determination of p53 status dependency; details: HCT116 p53+/+ vs p53−/−, 72 hours, viable cell numbers
Method: (§1) The isogenic colon carcinoma cells lines HCT116 p53+/+ or p53−/− and RKO p53+/+ or p53−/− were cultured in 12-well plates. After a recovery period of 24 hours, NVX-412 or Nutlin-3 was added in fresh growth medium at the indicated concentrations. […] After 24 or 72 hours cell numbers were determined with a Beckman Coulter ViCell XR.

[2] = test system: RKO p53+/+ or p53−/− cells; assay: Determination of p53 status dependency; details: RKO p53+/+ vs p53−/−, 72 hours, viable cell numbers
Method: as §1

[3] = test system: p-p53 (Ser15); assay: Immunofluorescence staining of p-p53 (Ser15) in HCT116 cells; details: HCT116, 24 hours, 1 µM (positive control)
Method: (§2) HCT116 and HeLa cells were seeded on glass cover slips in 6-well plates. 24 hours after plating, HCT116 cells were incubated with 0.15, 0.5 and 1 µM NVX-412 and 1 µM CPT for 24 hours for staining of p-p53. For investigating γH2AX, HeLa cells were incubated with 0.21, 0.5 and 1 µM NVX-412 and 1 µM CPT for 3 or 24 hours. Additionally, cells were allowed to recover for 24 hours in normal growth medium after 24 hours of incubation with NVX-412 or CPT (wash-out experiment). After the respective treatments, cells were washed and fixed with 4% methanol-free formaldehyde (Polysciences Inc. Warrington, PA, USA) for 15 minutes at room temperature and then permeabilized with 0.2% Triton X-100/PBS for 2 minutes at room temperature. After blocking with goat serum (5%) in 1% BSA/0.3% Triton X-100/PBS, the respective primary antibody was added and cells were incubated at 4°C overnight. Antibodies used were: mouse p-p53 (Ser15) (Cell Signaling Technology, Danvers, MA, USA) at 1∶100 dilution and mouse p-H2AX (Ser139) (Millipore, Billerica, MA, USA) at 1∶1000 dilution in 1% BSA/PBS, respectively. Cells were then washed 3 times for 10 minutes with 0.25% BSA/0.1% Triton X-100/PBS and incubated with the Alexa Fluor 488 conjugated secondary anti-mouse antibody (1∶1000 in 0.25% BSA/0.1% Triton X-100/PBS) for 1 hour at room temperature in the dark. Cells were washed 3 times for 10 minutes with 0.05% Tween-20/PBS containing Hoechst 33342 (Sigma Aldrich, Vienna, AUT) and mounted with mounting medium (Fluoprep, bioMérieux, Marcy l'Etoile, FRA). Fluorescence was immediately recorded on a Zeiss LSM700 laser scanning microscope.

[4] = test system: p-p53 (Ser15); assay: Western Blot for p-p53 (Ser15) in HCT116 cells; details: HCT116, 24 and 48 hours, 1 µM (control)
Method: Treated cells were directly lysed in NP40 cell lysis buffer (Invitrogen, Grand Island, NY, USA) containing protease and phosphatase inhibitors. Protein concentrations were measured colorimetrically (DC Protein Assay, Bio-Rad Laboratories, Hercules, CA, USA). Proteins were separated by SDS - polyacrylamide gel electrophoresis and blotted onto nitrocellulose membranes (Whatman™, Vienna, AUT). Equal loading was checked by Ponceau S (SERVA, Heidelberg, GER) staining. Bound antigen was visualized with the enhanced chemiluminescence detection system (Roche Diagnostics, Indianapolis, IN, USA). These procedures were performed according to the manufacturer’s protocols. Antibodies specific for the following proteins of interest were used: pChk1 (Ser296), p-p53 (Ser15), β-Tubulin and GAPDH were obtained from Cell Signaling Technology (Danvers, MA, USA) at 1∶1000 dilution. Secondary antibodies were peroxidase-tagged goat anti-rabbit or anti-mouse IgGs (Cell Signaling Technology) (1∶2000).

[5] = test system: HCT116 cells; assay: Flow cytometric cell cycle analysis; details: HCT116, 24 hours
Method: (§3) HT-29, HeLa and HCT116 cells were plated in 6-well plates. […] CPT was used at 50 nM and 1 µM. To analyze the cell cycle distribution, cells were collected after 24 hours of incubation and washed with PBS. Cells were fixed in 70% ethanol for at least 2 hours. For analysis, cells were transferred into PBS, incubated with RNAse A (0.04 µg/ml final concentration) for 30 minutes at 37°C, treated with […] propidium iodide for 30 min at 4°C and then analyzed by flow cytometry using BD FACScan (Becton, Dickinson and Company, Franklin Lakes, NJ, USA). The resulting DNA histograms were quantified using ModFit LT (Verity Software House, Topsham, ME, USA).

[6] = test system: HT-29 cells; assay: Flow cytometric cell cycle analysis; details: HT-29, 24 hours
Method: as §3

[7] = test system: HeLa cells; assay: Flow cytometric cell cycle analysis; details: 24 hours
Method: as §3

[8] = test system: HCT116 cells; assay: DNA replication rate (BrdU incorporation ELISA); details: HCT116, 24 hours treatment then 24 hours in normal growth medium
Method: (§4) HeLa and HCT116 cells were plated in black 96-well plates. After cells were allowed to recover for 24 hours NVX-412 or CPT was added in fresh growth medium. After 24 hours of incubation a chemiluminescent BrdU Incorporation ELISA (Roche Applied Science, Penzberg, Germany) was performed with half of the plates according to the manufacturer’s protocol. Cells in the remaining plates were allowed to recover for 24 hours in normal growth medium before DNA replication was measured (wash-out experiment). To check whether a possible decline in DNA replication rate is not simply due to lower cell numbers because of cell death induction, the proportion of viable cells was determined in parallel by a MTT-based cytotoxicity assay according to the manufacturer’s protocol (EZ4U, Biomedica, Vienna, Austria). Colorimetric (at 492 and 620 nm) and chemiluminescent measurements were performed using a FLUOstar OPTIMA (BMG Labtech, Ortenberg, Germany).

[9] = test system: HeLa cells; assay: DNA replication rate (BrdU incorporation ELISA); details: 24 hours treatment then 24 hours in normal growth medium
Method: as §4

[10] = test system: γH2AX (Ser139); assay: Immunofluorescence staining and quantification of γH2AX in HeLa cells
Method: as §2
The common procedure for assessing γH2AX induction is to count γH2AX foci. Since with NVX-412 and the positive control CPT γH2AX activation was that strong, no distinguishable and countable foci were seen. Therefore, the average γH2AX fluorescence intensity per nucleus was determined. To this end, γH2AX intensities within a certain field were measured using Quantity One –4.6.9 (Basic freeware version, Bio-Rad Laboratories, Hercules, CA, USA) and were divided by the number of nuclei in this field.

Row | Compound | p53 status dependency of sensitivity [1] | p53 status dependency of sensitivity [2] | p-p53 (Ser15) immunofluorescence staining [3] | Phosphorylated p53 (Western Blot) [4] | Cell cycle distribution ([5]; 50 nM) | Cell cycle distribution ([5]; 1 µM) | Cell cycle distribution ([6]; 50 nM) | Cell cycle distribution ([6]; 1 µM) | Cell cycle distribution ([7]; 50 nM) | Cell cycle distribution ([7]; 1 µM) | DNA replication rate after recovery (wash-out) [8] | DNA replication rate after recovery (wash-out) [9] | γH2AX induction ([10]; 3 hours) | γH2AX levels after recovery (wash-out) ([10]; 24 hours treatment then 24 hours without drug)
1 | COc1ccc(C2=N[C@@H](c3ccc(Cl)cc3)[C@@H](c3ccc(Cl)cc3)N2C(=O)N2CCNC(=O)C2)c(OC(C)C)c1 [Nutlin-3, reference compound] | p53+/+ cells being much more sensitive than p53−/− cells | p53+/+ cells being much more sensitive than p53−/− cells | – | – | – | – | – | – | – | – | – | – | – | –
2 | CC[C@@]1(O)C(=O)OCc2c1cc1n(c2=O)Cc2cc3ccccc3nc2-1 [CPT, (S)-(+)-Camptothecin, reference compound] | – | – | positive for nuclear staining of p-p53 (Ser15) | strong induction | G2/M-phase arrest | most of the cells were already dead | G2/M arrest | S-phase arrest | G2/M arrest | S-phase arrest | a recovery was only observed at the lowest concentration tested | a recovery was only observed at the lowest concentration tested | Only a slight induction of γH2AX | not reversible
